Measured values from patent US6939850B2, “Altered human interleukin-1β convertase (ICE), NEDD-2, and C. elegans ced-3 polypeptides and uses therefor” (Massachusetts Institute of Technology, priority 1992, dated 2005).

Test system: lumbar motoneurons
Experiment: Naturally occurring lumbar motoneuron cell death in vivo
Set-up: species or system chick
Procedure: In the first model, embryos were treated with a single dose of an ICE inhibitor or control protease inhibitor on embryonic day 8 (E8), the time of maximum naturally occurring motoneuron cell death (Hamburger et al., J. Morph. 88:49-92 (1951)). Embryos treated in vivo with the peptide inhibitors appeared to develop normally and there were no gross abnormalties. […] 24 hours after treatment there is a similar reduction in the number of pyknotic cells and a significant increase in the number of healthy motoneurons (Table 6B). […] The ability of ICE inhibitors to block the naturally occurring cell death of interdigital cells in the developing limb was also studied. These cells undergo PCD as a means of sculpting the digits in many vertebrates. When embryos were treated with either ICE inhibitor on embryonic days, E6 and E7, there was a substantial reduction in the number of pyknotic cells between the digits of the hindlimb (FIG. 14).
Peptides. Two peptide inhibitors of ICE, Acetyl-Tyr-Val-Ala-Asp-aldehyde (Ac-YVAD-CHO) and Acetyl-Tyr-Val-Ala-Asp-chloromethylketone (Ac-YVAD-CMK) and two control peptide inhibitors, Acetyl-Leu-Leu-Arg-aldehyde (Ac-LLR-CHO; Leupeptin) and n-tosyl-Lys-chloromethyl-ketone (Tos-Lys-CMK) were synthesized by Bachem Biosciences (King of Prussia, Pa.) and shown by thin layer chromatography and HPLC to be greater than 98% pure. […] Methods for administration of peptides to examine effects on naturally occurring motoneuron cell death in vivo. Although cell death of lumbar motoneurons occurs between E6 and E12, the peak period of death (i.e., the greatest number of pyknotic cells) occurs on E8 (Oppenheim et al., J Comp. Neurol. 177:87-112 (1978)). For these experiments, embryos were given a single administration of an agent on E8 0 hr and sacrificed 15 hours later. […] Ac-YVAD-CMK and Tos-Lys-CMK were administered in a solution of DMSO/BSA, whereas Ac-YVAD-CHO and leupeptin (Sigma) were in BSA alone. The solutions (50-100 μl) were dropped onto the highly vascularized chorioallantoic membrane through a window in the shell. The control groups included both DMSO and BSA or vehicle alone. Embryos were killed and staged by the Hamburger-Hamilton series (Hamburger and Hamilton, J. Morph. 88:49-92 (1951)). The thoraco-lumbar spinal cord was dissected, fixed in Camoys or Bouins fixative, processed for paraffin histology, serially sectioned (10-12 μm) and stained with either thionin or hematoxylin and eosin. Pyknotic motoneurons were identified based on criteria previously described (Chu-Wang and Oppenheim, J. Comp. Neurol. 177:33-58 (1978); Clarke and Oppenheim In Methods in Cell Biology Series; Cell Death; eds: Schwartz and Osborne. Academic Press. New York, N.Y. In press.) and were counted in every 10th or 20th section through the entire lumbar enlargement. The total number of pyknotic cells were then estimated by multiplying these values by 10 or 20. All cell counts were performed by individuals blinded with regard to drug treatment of the embryos. Methods for limb bud removal experiments. A unilateral limb bud removal was performed on E2 as described previously (Oppenheim et al., J. Comp. Neurol. 177:87-112 (1978)). Because induced cell death following limb removal begins on E5 (before that there is no difference in the number of motoneurons between the operated or unoperated sides) embryos were given one treatment of Ac-YVAD-CHO (40 μg) or BSA (control) at E5-0 hr and another at E5-12 hours (total peptide administered was 80 μg). Animals were killed at E6-0 hr. Methods were the same as described above except the section thickness was 6-8 μm (see Method for Administration of Peptides, above). Methods for limb bud interdigital regions. […]

[1] = 24 hours post treatment, mean ±SD

Acetyl-Tyr-Val-Ala-Asp-aldehyde [Ac-YVAD-CHO]
Pyknotic Lumbar Motoneurons on E8 (15 hours post treatment, single administration of 400 μg on E8, mean ±SD): 146 ± 35
Healthy Motoneurons (lumbar) on E9 [1]: 15,680 ± 684
Pyknotic Motoneurons (lumbar) on E9 [1]: 150 ± 30
effectiveness for inhibition of motoneuron PCD in vivo (FIG. 13): dose dependent
